# Measured values: PMC6141559, “Human-like smelling of a rose scent using an olfactory receptor nanodisc-based bioelectronic nose” (Scientific Reports, 2018)
# Target: T1, human olfactory receptor 1A2 (hOR1A2) (Homo sapiens, UniProt Q9Y585)
# T1 construct: gene OR1A2; hOR1A2 expressed in E. coli, purified and embedded in MSP1E3D1 nanodiscs
# T1 sequence (Q9Y585 1-309): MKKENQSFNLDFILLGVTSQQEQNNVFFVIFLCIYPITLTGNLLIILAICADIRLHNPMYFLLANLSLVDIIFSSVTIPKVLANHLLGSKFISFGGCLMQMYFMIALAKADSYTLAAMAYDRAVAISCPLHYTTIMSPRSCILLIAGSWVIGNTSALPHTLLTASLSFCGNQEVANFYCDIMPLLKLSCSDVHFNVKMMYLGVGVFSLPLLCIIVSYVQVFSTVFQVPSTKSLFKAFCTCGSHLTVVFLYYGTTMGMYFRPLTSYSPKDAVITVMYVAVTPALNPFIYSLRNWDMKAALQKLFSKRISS
# Assay: nanodisc-functionalized floating-electrode CNT-FET biosensor, equilibrium (association) constant from Hill-Langmuir fit; also HEK-293 luciferase assay (Kd […])
# Type: binding
# Conditions: read-out: nanodisc-functionalized floating-electrode CNT-FET biosensor, equilibrium (assoc) (converted)
smiles,measurement,value
CC(C)=CCCC(C)CCO (stereo not shown) [citronellol],Kd,385 nM
